This note sets out measurements from patent US12226410B2, “Methods for enhancing cellular clearance of pathological molecules via activation of the cellular protein ykt6” (NORTHWESTERN UNIVERSITY, priority 2019, dated 2025).

Molecules are shown by their SMILES.

Assay [1] relates to A53T iPSn. The assay can be described thus: Measurement of neuron viability (neurofilament). The format is cell-based, human. The note with it: A53T iPSn analyzed at day 100; 5 nM, 14d. Here is the method:
FIGS. 6A, 6B, 6C, 6D, 6E, 6F, and 6G. FTIs enhance lysosomal GCase activity and reduce pathological a-syn by blocking ykt6 farnesylation. 6A) GCase activity in FTI-treated A53T iPSn at d80 (LNK-754 5 nM, 5d). 6B) GCase activity in FTI-treated A53T iPSn expressing empty vector (vect) or ykt6-CS (n=4). 6C) Lysosomal GCase activity was assessed in FTI-treated SHSY5Y cells transfected with scrambled or ykt6 shRNA (KD) (n=3). 6D) Quantification of Triton X-100 soluble (T-sol) a-syn by western blot from FTI-treated A53T iPSn (5 nM, 7d). *, non-specific band. (n=3). 6E) Quantification of insoluble a-syn from A53T iPSn as in D (n=3). 6F) Insoluble a-syn in FTI-treated H4 cells (5 nM, 5 days) transfected with either scrambled or ykt6 shRNA (n=6). 6G) Neuron viability was assessed in FTI-treated A53T iPSn (5 nM, 14d from d86-d100) by quantification of neurofilament protein. […]
Measurement of neuron viability. iPSC-neurons were seeded on a PDL/laminin coated 96 well plate and analyzed and treated with either lentivirus expressing ykt6 CS vs empty vector, or DMSO vs 5 nM FTI (LNK-754) for 14 days. […] Neurofilament intensity was determined using Image Studio software (version 2.1 Li-cor) and normalized to cell volume. Replicates represent values from four individual culture wells and were analyzed by Student's T-test using GraphPad Prism software V 6.0. […]

For assay [2], the system named is human A53T a-syn. Kind of assay: FTI treatment of DASYN53 mice: soluble and insoluble a-syn in midbrain. Type of assay: in vivo. Conditions: i.p. 0.9 mg/kg, 26d. The text has this:
FIGS. 8A, 8B, 8C, 8D, 8E, and 8F. FTI treatment enhances GCase activity and reduces pathological a-syn in transgenic mice. 8A) GCase activity in the midbrain of FTI (LNK-754)-treated DASYN53 mice (treated as in FIG. 7) (n=4, veh; n=5, FTI). 8B & 8C) Quantification of soluble and insoluble a-syn from midbrains of FTI-treated DASYN53 mice normalized to total protein (CBB). Syn211 is selective for human (hu) a-syn; C20 and syn303 detect mouse (ms) and hu a-syn, (n=3, nTg+Veh; n=4, DASYN53+veh; n=5 DASYN53+FTI). 8D) Midbrain TH levels were quantified by western blot of FTI-treated DASYN53 mice (n=3). 8E) Body weight of FTI-treated DASYN53 mice (n=9, nTg+Veh; n=7, DASYN53+veh; n=7 DASYN53+FTI). 8F) Rotarod test of FTI-treated DASYN53 mice (n=12, nTg+Veh; n=7, DASYN53+veh; n=7 DASYN53+FTI). Values are the mean+/−SEM. *p<0.05, **p<0.01, and *** p<0.001. Student's t-test, panel A; ANOVA with Tukey's posthoc test, panels B-F.
Sequential biochemical extraction for the analysis of pathological a-synuclein. Cells were harvested in phosphate buffered saline (PBS), pH 7.4, and pelleted by centrifugation at 400×g for 5 minutes. […] Protein concentration was measured by BCA assay (Pierce). […]

Consider `C#Cc1cccc(-c2cc(=O)n(C)c3ccc([C@](O)(c4ccc(Cl)cc4)c4cncn4C)cc23)c1` [LNK-754], for which the neuron viability entry in assay [1] is listed as “improved neuron viability”. Moreover, in assay [2], the “soluble and insoluble A53T a-syn in midbrain extracts” value is “reduce soluble and insoluble A53T a-syn”.
